Test results: US10383869B2, “Treatment with opioid antagonists and mTOR inhibitors” (THE UNIVERSITY OF CHICAGO, priority 2008, dated 2019)
Values joined by “and” are separate entries in the source; they are usually repeats but may differ in a detail not shown here. Equal values may be shown once. Read-outs that look alike come from different tables or passages of the source.

What was measured:
[1] = system: human pulmonary microvascular endothelial cells (HPMVEC); assay: Human pulmonary microvascular EC proliferation assay (VEGF-induced); type: cell-based
Protocol: Human pulmonary microvascular EC proliferation assay—For measuring cell growth, HPMVEC [5×10^3 cells/well] pretreated with various agents were incubated with 0.2 ml of serum-free media containing 100 nM VEGF for 24 h at 37° C. in 5% CO2195% air in 96-well culture plates. The in vitro cell proliferation assay was analyzed by measuring increases in cell number using the CellTiter96™ MTS assay (Promega, San Luis Obispo, Calif.) and read at 492 nm. Each assay was set up in triplicate, repeated at least five times and analyzed statistically by Student's t test (with statistical significance set at P<0.05).
(§1) Experiments were performed in triplicate. Error bars=standard deviation.
as §1

[2] = system: human pulmonary microvascular endothelial cells (HPMVEC); assay: Human pulmonary microvascular EC migration assay (VEGF-induced, transwell); type: cell-based; details: VEGF 100 nM
Protocol: Human pulmonary microvascular EC migration assay—Twenty-four transwell units with […] pore size were used for monitoring in vitro cell migration. HPMVEC (˜1×10^4 cells/well) were plated with various treatments to the upper chamber and VEGF (100 nM) was added to the lower chamber. Cells were allowed to migrate for 18 hours. Cells from the upper and lower chamber were quantitated using the CellTiter96™ MTS assay (Promega, San Luis Obispo, Calif.) and read at 492 nm. Percent migration was defined as the # of cells in the lower chamber divided by the number of cells in both the upper and lower chamber. Each assay was set up in triplicate, repeated at least five times and analyzed statistically by Student's t test (with statistical significance set at P<0.05).
Synergistic effects of MNTX with Temsirolimus on inhibition of VEGF—induced human EC proliferation and migration. Inhibition curves of human EC assayed for VEGF (100 nM)-induced proliferation and migration (24 hours) in the presence or absence of 0.1, 1.0, 10, 100 or 500 nM MNTX, Temsirolimus or 10 nM MNTX+Temsirolimus. MNTX inhibited EC VEGF-induced proliferation with an IC50 of ˜100 nM. Adding 10 nM MNTX to EC shifted the IC50 of Temsirolimus inhibition of VEGF-induced proliferation from ˜10 nM to ˜1 nM. Experiments were performed in triplicate. Error bars=standard deviation. […]

[3] = white crystalline powder, typically the bromide salt, as commercially provided; cited from earlier work
[4] = system: Akt; assay: VEGF-induced Akt activation (phosphorylation) immunoblot in human pulmonary microvascular endothelial cells; type: cell-based; details: for VEGF-induced phosphorylation (activation) of Akt at serine 473 and threonine 308: human EC, VEGF 100 nM 5 minutes, 1 hour pre-treatment with 100 nM compound
Protocol: To assess the effects of methylnaltrexone (MNTX) on the VEGF-induced activation of the serine/threonine kinase Akt, a well-characterized endothelial cell line, human pulmonary microvascular endothelial cells (HPMVEC), was used. HPMVEC were serum starved for one hour and either untreated (control) or treated with VEGF (100 nM, 5 minutes) with or without pre-treatment (1 hour) with 100 nM MNTX, 100 ng/ml bevacizumab, 100 μM 5-FU, 100 nM MNTX+100 ng/ml bevacizumab or 100 nM MNTX+100 μM 5-FU. Cell lysates were obtained, run on SDS-PAGE and immunoblotted with anti-pSer^473Akt, anti-pThr^308Akt, anti-Akt or anti-actin antibody.
Cell Culture and Reagents—Human pulmonary microvascular EC were obtained from Cambrex (Walkersville, Md.) and cultured as previously described (Singleton et al. (2006), Microvasc. Res. 72(1-2):3-11; Singleton et al. (2007), Am. J. Respir. Cell Mol. Biol. 37(2):222-231) in EBM-2 complete medium (Cambrex) at 37° C. in a humidified atmosphere of 5% CO2, 95% air, with passages 6-10 used for experimentation. Unless otherwise specified, reagents were obtained from Sigma (St. Louis, Mo.). Vascular endothelial growth factor (VEGF) was purchased from R&D Systems (Minneapolis, Minn.). Methylnaltrexone bromide (MNTX) was purchased from Mallinckrodt Specialty Chemicals (Phillipsburg, N.J.). Bevacizumab was purchased from Genentech (South San Francisco, Calif.). 5-fluorouracil (5-FU) was purchased from Abraxis Pharmaceutical Products (Schaumburg, Ill.). Naltrexone and rapamycin were purchased from Sigma (St. Louis, Mo.). Reagents for SDS-PAGE electrophoresis were purchased from Bio-Rad (Richmond, Calif.) and Immobilon-P transfer membrane was purchased from Millipore (Millipore Corp., Bedford, Mass.). Rabbit anti-pSer^473Akt, rabbit anti-pThr^308Akt and rabbit anti-Akt antibodies were purchased from Cell Signaling Technologies (Danvers, Mass.). Mouse anti-β-actin antibody was purchased from Sigma (St. Louis, Mo.). Secondary horseradish peroxidase (HRP)-labeled antibodies were purchased from Amersham Biosciences (Piscataway, N.J.). […]

[5] = system: T1, mTOR Complex 1 (Homo sapiens); assay: VEGF-induced mTOR complex formation, anti-Raptor immunoprecipitation and immunoblot; type: cell-based; details: human EC, VEGF 100 nM 5 minutes, 1 hour pretreatment with 100 nM compound
T1 construct: EC lysates were obtained and immunoprecipitated with anti-Raptor (mTOR Complex 1 component); endogenous in cells; host or cells: human endothelial cells (EC)
Protocol: (§2) Analysis of mTOR Complex Formation and Regulation of Akt Phosphorylation—Human EC were serum starved for one hour and either untreated (control) or treated with VEGF (100 nM, 5 minutes) with or without pretreatment (1 hour) with 100 nM MNTX or 100 nM Temsirolimus. EC lysates were obtained and immunoprecipitated with anti-Raptor (mTOR Complex 1 component) or anti-Rictor (mTOR complex 2 component) antibody. The immunoprecipitated material was run on SDS-PAGE and immunoblotted with either anti-mTOR, anti-FKBP12, anti-Raptor, anti-SIN1 or anti-Rictor antibody. To investigate the regulation of Akt phosphorylation, human EC were serum starved for one hour and either untreated (control) or treated with VEGF (100 nM, 5 minutes) with or without pretreatment with the PI3 kinase inhibitor, LY294002 (10 μM, 1 hour), Src siRNA or Rictor (mTOR complex 2 component) siRNA. EC lysates were obtained, run on SDS-PAGE and immunoblotted with anti-pSer^473Akt, anti-pThr^308Akt or anti-Akt antibody.

[6] = system: mTOR Complex 2; assay: VEGF-induced mTOR complex formation, anti-Rictor immunoprecipitation and immunoblot; type: cell-based; details: human EC, VEGF 100 nM 5 minutes, 1 hour pretreatment with 100 nM compound
Protocol: as §2

## CN(N=O)c1ccc(O)c(O)c1 [3,4-dephostatin]
[1]; VEGF 100 nM, 24 hours, with Temsirolimus with or without 10 nM MNTX
  effect of PTP inhibitor on VEGF-induced EC proliferation: inhibited
[2]; 24 hours, with Temsirolimus with or without 10 nM MNTX
  effect of PTP inhibitor on VEGF-induced EC migration: inhibited

## C[N@+]1(CC2CC2)CC[C@]23c4c5ccc(O)c4O[C@H]2C(=O)CC[C@@]3(O)[C@H]1C5 [methylnaltrexone, N-methylnaltrexone]
[3]
  solubility in water: freely soluble in water
[4]; 1.0, 10, 100, 1000 nM MNTX
  inhibition of VEGF-induced pSer473Akt and pThr308Akt immunoreactivity, dose relation: dose-dependent
[4]
  VEGF-induced phosphorylation (activation) of Akt at serine 473 and threonine 308: abrogated
[5]
  VEGF-induced formation of mTOR Complex I: inhibits
[1]; Homo sapiens, Endothelial cell, 24 h, read-out: IC50 of inhibition of VEGF-induced EC proliferation
  IC50: ~0.1 µM
[6]
  VEGF-induced formation of mTOR Complex II: inhibits

## CO[C@H]1C[C@@H]2CC[C@@H](C)[C@@](O)(O2)C(=O)C(=O)N2CCCC[C@H]2C(=O)O[C@H]([C@H](C)C[C@@H]2CC[C@@H](OC(=O)C(C)(CO)CO)[C@H](OC)C2)CC(=O)[C@H](C)/C=C(\C)[C@@H](O)[C@@H](OC)C(=O)[C@H](C)C[C@H](C)/C=C/C=C/C=C/1C [temsirolimus]
[4]
  VEGF-induced phosphorylation (activation) of Akt at serine 473 and threonine 308: did not inhibit
[5]
  VEGF-induced formation of mTOR Complex I: mTOR complex II only
[1]; VEGF 100 nM, 24 hours, compound alone, read-out: IC50 of inhibition of VEGF-induced EC proliferation
  IC50: ~0.01 µM and 0.01 µM
[1]; VEGF 100 nM, 24 hours, plus 10 nM MNTX, read-out: IC50 of inhibition of VEGF-induced EC proliferation with 10 nM MNTX added
  IC50: ~0.001 µM
[1]; VEGF 100 nM, 24 hours, presence of 3,4-Dephostatin, read-out: IC50 of inhibition of VEGF-induced EC proliferation in the presence of 3,4-Dephostatin
  IC50: 0.015 µM
[6]
  VEGF-induced formation of mTOR Complex II: inhibits

## rapamycin
[1]; VEGF 100 nM, 0.01, 0.1, 1.0 or 10 nM rapamycin
  inhibition of VEGF-induced endothelial cell proliferation: dose-dependent inhibition
[2]; 0.01, 0.1, 1.0 or 10 nM rapamycin
  inhibition of VEGF-induced endothelial cell migration: dose-dependent inhibition
